Data reported in PMC11374660, “The novel family of Warbicin® compounds inhibits glucose uptake both in yeast and human cells and restrains cancer cell proliferation” (Frontiers in Oncology, 2024).

Key:
[1] = tested on: A549 lung adenocarcinoma cells; design: method as in PMID 22689530; details: previously reported; ref [67]; cited from earlier work
female NMRI-nu mice = test: In vivo toxicity and tolerability in mice; details: for abnormalities / toxic effects in liver and other organs at autopsy: daily i.p., toxic effects at 20 mg/kg WBC-15C and at 20 and 10 mg/kg WBC-11C, not at lower doses; for loss in body weight: daily intraperitoneal injection, 5, 10 and 20 mg/kg; for AST/ALT ratio vs vehicle: sera after 20 days, 5, 10, 20 mg/kg daily i.p.; for blood glucose level vs vehicle: sera post-mortem after 20 days, 5, 10, 20 mg/kg daily i.p.
Description: Warbicin ® in vivo toxicity and tolerability was examined by subjecting female NMRI-nu mice (12 weeks old) to daily intraperitoneal injection of either WBC-A, WBC-15C, WBC-4C or WBC-11C. Compounds were dosed at either 5 mg/kg, 10 mg/kg or 20 mg/kg over a period of 20 days. Three mice were used per condition. To evaluate toxicity, change in body weight was registered daily. As a humane endpoint, mice that lost more than 20% of their original body weight were prematurely sacrificed. In addition, liver function was examined by measuring the ratio of the AST to ALT enzyme activities (AbCam ab105135, ab105134) in sera samples collected at the end of the experiment. Furthermore, the blood glucose level in mice sera was determined using the colorimetric GOD-PAP method. Due to their considerable hydrophobicity, the compounds were dissolved in a sterilized 1xPBS, 5% DMSO and 5% Tween-80 solution until a homogenous suspension was obtained that could be administered in a reproducible way.

[2] = Solubility of compound stocks; assay type: physicochemical; details: 100% DMSO
Description: WBC-A and the complete structural analog library ( Supplementary Table 2 ) were purchased from different vendors, i.e. Enamine (n = 185), Life Chemicals (n = 10), LabNetwork (n = 4) and Uorsy (n = 4). WBC compounds in general are very insoluble in aqueous solutions, challenging their solubilization. Throughout this work, WBC compounds were always stock aliquoted at 50 mM concentration in 100% DMSO. In many cases, gentle sonication and heating up to 37°C was necessary to completely solubilize the compound stocks. Whereas WBC-A, -15C, -4C and -11C could be dissolved at 50 mM, some structural analogs remained in smooth or rough suspension, regardless of the concentration. Even though it is recommended to aliquot compound stocks, no significant decrease in compound strength by repeated freeze and thaw cycles in DMSO was observed.

[3] = tested on: A549 lung adenocarcinoma cells; test: Glucose consumption and lactate production over 8 h, A549; assay type: cell-based, human; details: A549, 25 µM, 1 mM glucose
Description: The influence of WBC compounds on glucose consumption over a longer time period was studied in the A549 adenocarcinoma and KMS-12-PE multiple myeloma cell lines. As such, different parameters needed to be optimized depending on whether cells were adherent or in suspension. As such, A549 cells were incubated at 125,000 cells/well in a 24-well plate in 300 µL RPMI medium for 8 h. For the KMS-12-PE cell line, 100,000 cells/well were incubated in 100 µL RPMI medium in a 96-well plate for 8 h. Medium was collected, spun down and HPLC-analyzed for measuring glucose and lactate levels. Metabolite levels were corrected for cell number, which always varied little over the span of 8 h. For every condition, at least 4 technical repeats were included.

[4] = tested on: A549 lung adenocarcinoma cells; test: Proliferation of A549 lung adenocarcinoma cells; assay type: cell-based, human; details: for Selected from primary screen for growth inhibition of A549 cells at 50 µM: RPMI 1 mM glucose; for relative potency in reducing maximal growth rate of A549 cells: 1 mM glucose, 6.25-50 µM; for Selected for having an IC50 ratio (10 mM glucose : 1 mM glucose) of A549 growth higher than WBC-A: ratio of IC50 on 10 mM and 1 mM glucose, compared to WBC-A
Description: (§1) For both adherent A549 and MCF10A H-RAS^V12 cell lines, growth curves were established using the IncuCyte® ZOOM technology. By collecting phase contrast images, the IncuCyte® software provides a calculated confluency percentage from which growth curves can be deducted. The cell number/density was measured by calculating the confluency of phase objects (cells) sticking on the bottom of the well. Cells were seeded at a density of 1000 - 1500 cells/well in a Nunc-Edge™ 96-well plate (Thermo Fisher Scientific) and growth was typically measured over 3 to 5 days. For the measurement of apoptosis induction using the MCF10A H-RAS^V12 cell line, the IncuCyte® Caspase-3/7 green dye was added to the medium in the recommended concentration at the beginning of the growth curve experiment. Apoptosis was detected by taking fluorescent images by excitation at 488 nm followed by IncuCyte® software analysis. Cell growth of the KMS-12-PE multiple myeloma cell line, which grows in suspension, was measured by manual cell counting. Cells were initially seeded at a density of 10^4 cells/well and incubated for 4 days after which the cell number was counted. For all cell lines, the same medium used for pregrowth was also used for the growth curve experiment, albeit with different glucose concentrations depending on the experimental design. With compound administration, the final concentration of DMSO never exceeded 0.1%. Typically, at least four technical repeats were included per condition.

[5] = tested on: 2-deoxyglucose uptake in A549 lung adenocarcinoma cells; test: 2-deoxyglucose uptake in A549 lung adenocarcinoma cells; assay type: cell-based, human; details: for Ki: read-out: Ki for 2-deoxyglucose uptake (Dixon plot)
Description: Zero-trans glucose uptake in A549 cells was approximated by measuring the uptake of [1,2-^3H]2-deoxyglucose. For this purpose, A549 cells were pregrown in RPMI medium containing 10 mM glucose in a 24-well plate to a cell density of around 100,000 cells/well. Prior to adding radioactive label, cells were gently washed twice in Krebs-Ringer-HEPES buffer (50 mM HEPES pH 7.4, 137 mM NaCl, 4.7 mM KCl, […], 1.3 mM MgSO4 and 0.1% w/v BSA) at 30°C to remove any residual sugar. RPMI medium without sugar containing the compound intended for treatment, was added to the cells for 15 min at 37°C to allow adequate interaction of the cells with the compound. The uptake measurement was initiated by adding an equal volume of medium containing radiolabeled 2DG. After 3 - 4 min incubation at 37°C, medium was aspirated and cells were gently washed three times with ice-cold Krebs-Ringer-HEPES buffer. Cells were lysed by adding 200 µL of ice-cold 0.1 M NaOH solution and incubating the plate for 10 min at 37°C. Cell lysates were transferred to scintillation vials for subsequent scintillation counting. For blank measurements, cells were incubated with 50 µM Cytochalasin B prior to the uptake measurement.

yeast tps1Δ strain = test: Growth (rescue) of the yeast tps1Δ strain on galactose with or without glucose; assay type: cell-based, S. cerevisiae; details: 100 µM, 2.5 mM glucose
Description: Growth curves were made by measuring OD595 in a 96-well plate using the Multiskan™ FC Microplate Photometer (Thermo Fisher Scientific). Typically, for tps1Δ rescue experiments, cells were (pre)grown in Complete Synthetic medium containing 110 mM galactose. Compounds were always added 10 min prior to glucose addition to ensure maximal interaction between the cells and compounds. Cells originating from the preculture were harvested, washed in medium without sugar, after which they were resuspended to an OD of 0.1 in 200 µL of the appropriate medium. At least three technical replicates were included per condition. OD595 was measured at 30°C every 30 min with a 10-min shaking interval.

[6] = tested on: MCF10A breast epithelial cell line transformed with H-RAS^V12; test: Growth and apoptosis of MCF10A H-RAS^V12 cells (IncuCyte); assay type: cell-based, human; details: MCF10A H-RAS^V12, 1 mM glucose, 25 µM
Description: as §1

Structure (SMILES) | inhibition of A549 proliferation [1] | abnormalities / toxic effects in liver and other organs at autopsy (female NMRI-nu mice; 20 days) | adipose tissue at autopsy (female NMRI-nu mice; nude mice, daily i.p., 5, 10 and 20 mg/kg, 20 days, visual inspection vs vehicle) | loss in body weight (female NMRI-nu mice; nude mice, 20 days) | AST/ALT ratio vs vehicle (female NMRI-nu mice) | blood glucose level vs vehicle (female NMRI-nu mice) | concentration at which compound could be dissolved [2] | inhibition of glucose consumption and lactate production [3] | Selected from primary screen for growth inhibition of A549 cells at 50 µM [4] | relative potency in reducing maximal growth rate of A549 cells [4] | Selected for having an IC50 ratio (10 mM glucose : 1 mM glucose) of A549 growth higher than WBC-A [4] | type of inhibition of 2-deoxyglucose uptake (Lineweaver-Burk) [5] | Ki [5] | Rescue of the tps1∆ strain on 2.5 mM glucose at 100 µM (yeast tps1Δ strain) | inhibition of proliferation [6] | K'i for 2-deoxyglucose uptake ([5]; Dixon plot (Ki = K'i) or Cornish-Bowden plot (WBC-11C))
O=C(Oc1cccc(F)c1OC(=O)c1cccc(O)c1)c1cccc(O)c1 [WZB-117] | inhibition of its proliferation | – | – | – | – | – | – | – | – | – | – | – | – | – | – | –
Cc1nc(NCC(=O)Nc2ccccc2Br)c2c(-c3cccs3)csc2n1 [WBC-15C] | – | toxic effects were seen in the liver and other organs | adipose tissue was also observed in between the intestines | no significant loss in body weight | No significant difference | No significant difference | ≥ 50000 µM | inhibited glucose consumption and lactate production | Yes | least potent | Higher IC50 ratio and confirmed | competitive | 33.8 µM | No | – | –
Cc1nc(NCC(=O)NCc2ccco2)c2c(-c3ccccc3)csc2n1 [WBC-4C] | – | No other abnormalities | – | one single mouse treated with 20 mg/kg WBC-4C that was sacrificed at day 19 because of 20% weight loss | No significant difference | No significant difference | ≥ 50000 µM | inhibited glucose consumption and lactate production | Yes | intermediate potency | Higher IC50 ratio and confirmed | noncompetitive | 26.8 µM | No | highest potency | 26.75 µM
